Data on ten molecules can be found in patent US7192950B2, “Benzazepines and related heterocyclic derivatives which are useful as orexin receptor antagonists” (Actelion Pharmaceuticals, Ltd., priority 2000, dated 2007).

What is called IC50 is the midpoint of a concentration-inhibition curve.

For assay [1], the target named is T1, human orexin-1 receptor (Homo sapiens, UniProt O43613).
T1 construct: expressed in transfected cells; host or cells: CHO cells (G418 selection)
T1 sequence (O43613 1-425): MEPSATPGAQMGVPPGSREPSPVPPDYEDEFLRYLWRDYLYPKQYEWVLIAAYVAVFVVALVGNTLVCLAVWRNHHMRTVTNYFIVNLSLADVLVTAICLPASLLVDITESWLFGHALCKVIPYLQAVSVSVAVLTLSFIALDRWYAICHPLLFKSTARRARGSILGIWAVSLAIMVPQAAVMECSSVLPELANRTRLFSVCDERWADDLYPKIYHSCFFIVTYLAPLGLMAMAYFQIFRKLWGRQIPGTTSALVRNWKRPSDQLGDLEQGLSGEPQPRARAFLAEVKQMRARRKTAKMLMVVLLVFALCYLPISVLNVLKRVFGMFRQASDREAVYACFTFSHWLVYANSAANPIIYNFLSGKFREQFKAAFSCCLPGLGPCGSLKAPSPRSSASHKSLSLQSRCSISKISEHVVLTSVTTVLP
In words: Intracellular calcium measurements (FLIPR), OX1 receptor antagonist activity. In kind it is cell-based. As to conditions: CHO cells expressing human orexin-1 receptor; 10 nM orexin-A as agonist; fluo-3 calcium signal. The procedure:
(§1) The OX1 and OX2 receptor antagonist activities of the compounds of general formula (I) were determined in accordance with the following experimental method.
(§2) Intracellular Calcium Measurements
(§3) Chinese hamster ovary (CHO) cells expressing the human orexin-1 receptor and the human orexin-2 receptor, respectively, were grown in culture medium (Ham F-12 with L Glutamine) containing 300 μg/ml G418, 100 U/ml penicillin, 100 μg/ml streptomycin and 10% inactivated foetal calf serum (FCS).
(§4) The cells were seeded at 80'000 cells/well into 96-well black clear bottom sterile plates (Costar) which had been precoated with 1% gelatine in Hanks' Balanced Salt Solution (HBSS). All reagents were from Gibco BRL.
(§5) The seeded plates were incubated overnight at 37° C. in 5% CO2.
(§6) Human orexin-A as an agonist was prepared as 1 mM stock solution in methanol:water (1:1), diluted in HBSS containing 0.1% BSA and 2 mM HEPES for use in the assay at a final concentration of 10 nM.
(§7) Antagonists were prepared as 10 mM stock solution in DMSO, then diluted in 96-well plates, first in DMSO, then in HBSS containing 0.1% bovine serum albumin (BSA) and 2 mM HEPES.
(§8) On the day of the assay, 100 μl of loading medium (HBSS containing 1% FCS, 2 mM HEPES, 5 mM probenecid (Sigma) and 3 μM of the fluorescent calcium indicator fluo-3 AM (1 mM stock solution in DMSO with 10% pluronic acid Molecular Probes)) was added to each well.
(§9) The 96-well plates were incubated for 60 min at 37° C. in 5% CO2. The loading solution was then aspirated and cells were washed 3 times with 200 μl HBSS containing 2.5 mM probenecid, 0.1% BSA, 2 mM HEPES. 100 μl of that same buffer was left in each well.
(§10) Within the Fluorescent Imaging Plate Reader (FLIPR, Molecular Devices), antagonists were added to the plate in a volume of 50 μl, incubated for 20 min and finally 100 μl of agonist was added. Fluorescence was measured for each well at 1 second intervals, and the height of each fluorescence peak was compared to the height of the fluorescence peak induced by 10 nM orexin-A with buffer in place of antagonist. For each antagonist; IC50 values (the concentration of compound needed to inhibit 50% of the agonistic response) were determined.
For orientation: Calcium flux is commonly read through the fluorescence of an indicator in the cells.

Assay [2] addresses T2, human orexin-2 receptor (Homo sapiens, UniProt O43614).
T2 construct: expressed in transfected cells; host or cells: CHO cells (G418 selection)
T2 sequence (O43614 1-444): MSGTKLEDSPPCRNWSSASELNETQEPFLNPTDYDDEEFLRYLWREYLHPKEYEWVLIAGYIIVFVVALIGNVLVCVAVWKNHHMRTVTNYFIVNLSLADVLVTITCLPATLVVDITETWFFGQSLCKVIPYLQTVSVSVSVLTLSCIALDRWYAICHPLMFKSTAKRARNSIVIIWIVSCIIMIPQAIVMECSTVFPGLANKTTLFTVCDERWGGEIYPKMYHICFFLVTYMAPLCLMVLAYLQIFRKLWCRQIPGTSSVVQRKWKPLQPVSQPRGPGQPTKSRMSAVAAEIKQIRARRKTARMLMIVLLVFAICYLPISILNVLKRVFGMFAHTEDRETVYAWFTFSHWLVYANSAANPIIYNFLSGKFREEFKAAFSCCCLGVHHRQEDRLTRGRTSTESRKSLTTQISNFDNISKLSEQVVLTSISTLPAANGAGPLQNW
Put plainly: Intracellular calcium measurements (FLIPR), OX2 receptor antagonist activity. In kind it is cell-based. As to conditions: CHO cells expressing human orexin-2 receptor; 10 nM orexin-A as agonist; fluo-3 calcium signal. How it is done:
as §1, §2, §3, §4, §5, §6, §7, §8, §9, §10

`COc1ccc(CC2c3cc(OC)c(OC)cc3OCCN2CC(=O)NC2CCc3ccccc32)cc1OC` (racemic) [Example 5, 2-[5-(3,4-Dimethoxy-benzyl)-7,8-dimethoxy-2,3-dihydro-5H-benzo[f][1,4]oxazepin-4-yl]-N-indan-1-yl-acetamide]: the IC50 in assay [1] is 64 nM; in assay [2], 7900 nM.

Turning to `COc1ccc(CC2c3cc(OC)c(OC)cc3CCCN2CC(=O)NC2Cc3ccccc3C2)cc1OC` (centres unmarked) [Example 3, 2-[1-(3,4-Dimethoxy-benzyl)-7,8-dimethoxy-1,3,4,5-tetrahydro-benzo[c]azepin-2-yl]-N-indan-2-yl-acetamide], the values for the IC50 in assay [1] and in assay [2] were 99 nM and over 10000 nM, respectively.

Consider `COc1ccc(CC2c3cc(OC)c(OC)cc3CCCN2CC(=O)NC2CCc3ccccc32)cc1OC` (centres unmarked) [Example 9, 2-[1-(3,4-Dimethoxy-benzyl)-7,8-dimethoxy-1,3,4,5-tetrahydro-benzo[c]azepin-2-yl]-N-indan-1-yl-acetamide], for which the IC50 in assay [1] was 23 nM; in assay [2], 1240 nM.

Turning to `COc1ccc(CC2c3cc(OC)c(OC)cc3CCCN2C(C(=O)NC2Cc3ccccc3C2)c2ccccc2)cc1OC` (centres unmarked) [Example 20, 2-[1-(3,4-Dimethoxy-benzyl)-7,8-dimethoxy-1,3,4,5-tetrahydro-benzo[c]azepin-2-yl]-N-indan-2-yl-2-phenyl-acetamide], the figures for the IC50 in assay [1] and in assay [2] were 23 nM and 231 nM, respectively.

As to `COc1ccc(CC2c3cc(OC)c(OC)cc3CCCN2C(C(=O)NCc2ccc3c(c2)OCO3)c2ccccc2)cc1OC` (centres unmarked) [Example 23, N-Benzo[1,3]dioxol-5-ylmethyl-2-[1-(3,4-dimethoxy-benzyl)-7,8-dimethoxy-1,3,4,5-tetrahydro-benzo[c]azepin-2-yl]-2-phenyl-acetamide], the IC50 in assay [1] came out at 21 nM; in assay [2] it was 189 nM.

As for `COc1ccc(CC2c3cc(OC)c(OC)cc3CCCN2C(C(=O)NCc2ccco2)c2ccccc2)cc1OC` (centres unmarked) [Example 25, 2-[1-(3,4-Dimethoxy-benzyl)-7,8-dimethoxy-1,3,4,5-tetrahydro-benzo[c]azepin-2-yl]-N-furan-2-ylmethyl-2-phenyl-acetamide], the IC50 in assay [1] worked out at 41 nM; in assay [2], 241 nM.

`COC(=O)CCNC(=O)C(c1ccccc1)N1CCCc2cc(OC)c(OC)cc2C1Cc1ccc(OC)c(OC)c1` (centres unmarked) [Example 34, 3-{2-[1-(3,4-Dimethoxy-benzyl)-7,8-dimethoxy-1,3,4,5-tetrahydro-benzo[c]azepin-2-yl]-2-phenyl-acetylamino}-propionic acid methyl ester]: the IC50 in assay [1] amounted to 41 nM; in assay [2], 9190 nM.

`COc1ccc(CC2c3cc(OC)c(OC)cc3CCCN2C(C(=O)NCc2nc3ccccc3[nH]2)c2ccccc2)cc1OC` (centres unmarked) [Example 35, N-(1H-Benzoimidazol-2-ylmethyl)-2-[1-(3,4-dimethoxy-benzyl)-7,8-dimethoxy-1,3,4,5-tetrahydro-benzo[c]azepin-2-yl]-2-phenyl-acetamide]: the IC50 stood at 32 nM in assay [1] and 7040 nM in assay [2].

As to `COc1ccc(CC2c3cc(OC(C)C)c(OC)cc3CCCN2CC(=O)NC2CCc3ccccc32)cc1OC` (centres unmarked) [Example 68, 2-[1-(3,4-Dimethoxy-benzyl)-8-isopropoxy-7-methoxy-1,3,4,5-tetrahydro-benzo[c]azepin-2-yl]-N-indan-1-yl-acetamide], the IC50 in assay [1] is 12 nM; in assay [2], 174 nM.

For the molecule `COc1ccc(CC2c3cc(OCC(F)F)c(OC)cc3CCCN2CC(=O)NC2CCc3ccccc32)cc1OC` (centres unmarked) [Example 69, 2-[8-(2,2-Difluoro-ethoxy)-1-(3,4-dimethoxy-benzyl)-7-methoxy-1,3,4,5-tetrahydro-benzo[c]azepin-2-yl]-N-indan-1-yl-acetamide], the IC50 in assay [1] came to 9 nM; in assay [2], 349 nM.
